From ChEMBL document CHEMBL3639306, “1H-imidazo[4,5-c]quinolines” (2014)

Biological target: T1, 3-phosphoinositide-dependent protein kinase 1 (Homo sapiens, UniProt O15530)
T1 sequence (O15530 whole entry): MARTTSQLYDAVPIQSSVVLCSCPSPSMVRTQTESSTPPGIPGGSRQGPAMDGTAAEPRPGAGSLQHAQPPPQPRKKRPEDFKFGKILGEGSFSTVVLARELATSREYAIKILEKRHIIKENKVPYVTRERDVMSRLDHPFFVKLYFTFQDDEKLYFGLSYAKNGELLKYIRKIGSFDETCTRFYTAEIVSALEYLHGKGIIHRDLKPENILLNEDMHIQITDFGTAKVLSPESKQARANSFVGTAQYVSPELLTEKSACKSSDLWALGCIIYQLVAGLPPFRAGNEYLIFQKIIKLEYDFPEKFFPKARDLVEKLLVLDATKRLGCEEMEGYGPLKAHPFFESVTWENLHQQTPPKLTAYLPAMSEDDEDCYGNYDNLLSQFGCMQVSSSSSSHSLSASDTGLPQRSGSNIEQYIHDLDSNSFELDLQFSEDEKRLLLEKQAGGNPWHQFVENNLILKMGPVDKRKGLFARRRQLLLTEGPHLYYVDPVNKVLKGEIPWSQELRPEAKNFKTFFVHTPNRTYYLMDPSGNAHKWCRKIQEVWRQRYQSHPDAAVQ
Assay: Kinase Assay: Recombinant human PDK1 enzyme (aa 52-556) linked at its N-terminal end to His6 is isolated from baculovirus-infected insect cells. Purified enzyme may be obtained for example from the University of Dundee, Scotland. The following components are combined in a well of a 96-well round-based dish (Greiner bio-one, No. 650101): 1. 15 uL of compound to be tested in varying concentrations (e.g. starting at 10 uM, and diluted in steps of 1:5) in APT buffer (50 mM Tris/Cl pH7.5; 0.05% beta -mercaptoethanol; 10 mM Mg-acetate; 0.0166% Tween 20; 3.33% DMSO) 2. 15 uL His6-PDK1 (aa 52-556) 3.33 ng/well) and PDKtide (KTFCGTPEYLAPEVRRE […]), synthesised by Pepceuticals Limited, Nottingham, United Kingdom; 25 uM final concentration); His6-PDK1 and PDKtide are together diluted accordingly in assay buffer (50 mM tris pH 7.5, 0.05% beta -mercaptoethanol, 10 mM Mg-acetate); PDKtide is present in this mixture as an 83.3 uM solution.

| IC50 [nM] | Compound |
| --- | --- |
| 111 | Cc1nc2cnc3ccc(C#CCNC(=O)c4cc(Cl)nn(Cc5ccc(F)c(F)c5)c4=O)cc3c2n1[C@H]1CCCN(C)C1 |
| 14 | Cn1c(CCO)nc2cnc3ccc(C#CCNC(=O)c4cncn(Cc5ccc(F)c(F)c5)c4=O)cc3c21 |

| Compound | IC50 [nM] |
| --- | --- |
| O=C(NCC#Cc1ccc2ncc3nc[nH]c3c2c1)c1cccn(Cc2ccc(F)c(F)c2)c1=O | 4 |
